Reference: patent US20150245597A1, “HETEROZYGOUS MOUSE WITH AN INACTIVATED BRD1 ALLELE AND USES IN PSYCHIATRY” (CAPNOVA A/S, priority 2012, published 2015)

How the values were obtained:
Assay type in all cases: in vivo, mouse
R mice [1] = test: Psychotropic drug-induced locomotor hyperactivity test
Description: Psychotropic drug-induced locomotor hyperactivity was established by injections with PCP (1.3, 2.5, and 5 mg/kg s.c.), amphetamine (1.3, 2.5, and 5 mg/kg s.c.) and cocaine (10, 20, and 30 mg/kg s.c.) as opposing saline vehicle s.c. and measured by recording both horizontal locomotor activity and rearing activity in an automated photo-cell equipped home-cage.

R mice [2] = test: Pre-Pulse Inhibition (PPI) test during pharmacological challenge
Description: Gaiting and re-activity of the startle reflex was investigated by Acoustic Startle Response (ASR) and Pre-Pulse Inhibition (PPI) tests. In addition to baseline scores mice were also tested during pharmacological challenge; PCP (2.5 and 5 mg/kg s.c.) and amphetamine (2.5 and 5 mg/kg s.c.).

R mice [3] = test: Forced swim test (FST) with anti-depressants; conditions: for depressive equivalent behaviours during FST, difference between R and W mice: imipramine 1 mg/kg and 10 mg/kg, Fluoxetine 5 mg/kg, SC
Description: (§2) Depressive equivalent behaviours were assessed by forced swim test (FST) and tail suspension test (TST). Depressive equivalent behaviours (FST and TST) were assessed with anti-depressants (e.g. imipramine at two doses: 1 mg/kg and 10 mg/kg and Fluoxetine: 5 mg/kg, and with normal saline vehicle subcutaneous (SC) injections.

R mice [4] = test: Tail suspension test (TST) with anti-depressants; conditions: for depressive equivalent behaviours during TST, difference between R and W mice: imipramine 1 mg/kg and 10 mg/kg, Fluoxetine 5 mg/kg, SC
Description: as §2

R mice [5] = test: Y-maze spontaneous alternation test with PCP challenge; conditions: R mice vs W, PCP 1.3 mg/kg s.c., p<0.01
Description: (§1) Spatial learning and spatial working memory was tested in the Morris Water Maze (MWM). Learning was scored based on latency to escape while memory was scored based on frequency and time spent in each zone of the maze. Exploratory and working memory components was addressed by various types of y-maze alternation tasks including spontaneous alternation test with dark phase testing, continuous alternation, and delayed alternation. Both baseline and induced behaviour (PCP 1.3 mg/kg s.c. and 2.5 mg/kg s.c.) was assessed. In all Y-maze tasks, alternation was calculated as the percentage of right choices out of the total arm entries.

R mice [6] = test: Y-maze continuous alternation test with PCP challenge; conditions: R mice vs W, PCP 1.3 mg/kg s.c., p<0.05
Description: as §1

[7] = Imipramine 10 mg/kg compared with Fluoxetine

CC(N)Cc1ccccc1 (stereo not shown) [Amphetamine, amphetamine]
drug-induced locomotor activity response (horizontal and rearing activity) (R mice [1]; R males compared to W mice, amphetamine 5 mg/kg s.c.): obvious hypoactivity | differences between R and W mice in PPI test when challenged (R mice [2]; amphetamine at any dose (2.5 and 5 mg/kg s.c.)): No differences

CNCCC(Oc1ccc(C(F)(F)F)cc1)c1ccccc1 (stereo not shown) [Fluoxetine]
depressive equivalent behaviours during FST, difference between R and W mice (R mice [3]): reversed | depressive equivalent behaviours during TST, difference between R and W mice (R mice [4]): reversed

CN(C)CCCN1c2ccccc2CCc2ccccc21 [Imipramine, imipramine]
effect size on depressive equivalent behaviours (FST) (R mice [3]; [7]): larger effect sizes than Fluoxetine | depressive equivalent behaviours during FST, difference between R and W mice (R mice [3]): reversed | effect size on depressive equivalent behaviours (TST) (R mice [4]; [7]): larger effect sizes than Fluoxetine | depressive equivalent behaviours during TST, difference between R and W mice (R mice [4]): reversed

c1ccc(C2(N3CCCCC3)CCCCC2)cc1 [PCP]
drug-induced locomotor hyperactivity (horizontal and rearing activity) (R mice [1]; R males vs W mice, PCP 5 mg/kg s.c.): clear sensitivity | alternation in the spontaneous alternation test (R mice [5]): significant reduction | alternation in the continuous alternation test (R mice [6]): significant reduction | inhibition of the startle in the PPI test (R mice [2]; R males vs W mice, high prepulse intensities (15 db above background noise level), PCP 5 m/kg s.c.): reduced | Prepulse inhibition, response of R mice as compared to W littermates (R mice [2]; Table 1, males only with PCP): Decreased
